From patent publication US20250188417A1, “CARDIOMYOCYTES AND COMPOSITIONS AND METHODS FOR PRODUCING THE SAME” (President and Fellows of Harvard College, priority 2021, published 2025)

Legend:
Format in all cases: cell-based, human
BJRiPS-CMs = experiment: Western blot and densitometry (MDM2, p53, TNNI3) and cell cycle analysis of BJRiPS-derived cardiomyocytes
Description: FIG. 6A provides a schematic showing proposed mechanism of cardiomyocyte maturation. T3, triiodothyronine. […] FIG. 6C provides representative Western blot of MDM2, p53, TNNI3, and β-tubulin from BJRiPS-derived cardiomyocyte lysates treated with control (DMSO), nutlin-3a Å˜24 hours (10 μmol/L), Torin1 Å˜7 days (200 nmol/L), or Torin1 Å˜7 days (200 nmol/L)+nutlin-3a (10 μmol/L) for 24 hours beginning ≈2 days after onset of beating (nutlin-3a was only administered during the first 24 hours of Torin1 treatment). Cells harvested on final day of treatment, BJRiPS-CMs. […] DMSO indicates dimethylsulfoxide; mTOR, mechanistic target of rapamycin; and TNNT2+ BJRiPS-CMs, troponin T2, cardiac type-positive BJ fibroblast-derived RNA-induced pluripotent stem cell-derived cardiomyocytes.
FIG. 14A provides representative western blot of p53, phospho-53, p21 (CDKN1a), GATA4, NKX2.5, and β-tubulin from Gibco iPS-CM lysates treated with 0 (DMSO), 10, 50, or 200 nM Torin1 for 7 days starting ˜2 days after onset of beating. Cells harvested on final day of treatment. FIG. 14B provides cell cycle analysis showing percentage of TNNT2+ BJRiPS-CMs in G0, G1 or S/G2/M phases after treatment with vehicle (DMSO, dimethylsulfoxide), pifithrin-α (10 μM) for 1 week, Torin1 (200 nM) for 7 days or simultaneous treatment with pifithrin-α (10 μM) and Torin1 (200 nM) for 7 days starting ˜2 days after onset of beating. n=3 per group, *p<0.05, **p<0.01, ***p<0.001, ****p<0.0001 by two-way ANOVA with Tukey's multiple comparisons test. FIG. 14C provides representative western blot of p53, TNNI3, p21, and β-tubulin from BJRiPS-derived cardiomyocyte lysates treated with control (DMSO), Torin1 (200 nM), pifithrin-α (10 PM) or Torin1 (200 nM)+pifithrin-α (10 μM) for 7 days beginning ˜2 days after onset of beating. Cells harvested on final day of treatment.

iPSC-CMs = experiment: Flow cytometry of marker expression and live cells in iPSC-CMs treated in 3D culture
Description: The UCSD142i-86-1 cell line was used to generate preliminary data. UCSD142i-86-1 cells were differentiated into cardiomyocytes according to previously published protocols (9) adapted to three-dimensional culture in the laboratory. Two days after onset of beating (around day 9 of differentiation), cardiomyocytes were treated with vehicle (DMSO) or different concentrations of quercetin for different time periods. Cells were harvested for qPCR, western, or flow cytometry at different time points.

cardiomyocytes = experiment: Flow cytometry in 2D culture (TNNT2, MitoTracker Red CMXRos, superoxide signal); conditions: FACS, FIG. 8
Source text: FACS N=3/group, MitoTracker Red CMXRos flow cytometry, 1-way ANOVA with Tukey's multiple comparisons test.
Reactive oxygen species may regulate cardiomyocyte maturation. FACS, n=3/group.

[1] = treatment of iPSC-CMs in 3D culture

Row | SMILES | TNNI3 expression, effect together with Torin1 (BJRiPS-CMs; nutlin-3a 10 μmol/L during first 24 hours of Torin1 200 nmol/L for 7 days) | p53 (Western analysis) (BJRiPS-CMs; nutlin-3a 10 μmol/L for 24 hours) | TNNI3 expression (BJRiPS-CMs; nutlin-3a 10 μmol/L for 24 hours, about 2 days after onset of beating, Western densitometry) | percentage of TNNT2+ iPSC-CMs (iPSC-CMs; 3D culture, flow cytometry, FIG. 2A) | mean fluorescence intensity (MFI) of TNNT2 (iPSC-CMs; 3D culture, flow cytometry, FIG. 2B) | % of TNNI3+ (iPSC-CMs; 3D culture, flow cytometry, FIG. 2C) | mean fluorescence intensity of TNNI3 (iPSC-CMs; 3D culture, flow cytometry, FIG. 2D) | percentage of TNNT2+ iPSC-CMs expressing Kir2.1 (iPSC-CMs; 3D culture, flow cytometry, FIG. 2E / FIG. 3A) | mean fluorescence intensity (MFI) of Kir2.1 (iPSC-CMs; 3D culture, flow cytometry, FIG. 2F / FIG. 3B) | % of p53+ TNNT2+ iPSC-CMs (iPSC-CMs; 3D culture, flow cytometry, FIG. 2G / FIG. 3C) | mean fluorescence intensity of p53 (iPSC-CMs; 3D culture, flow cytometry, FIG. 3D) | expression of Kir2.1 (iPSC-CMs; [1]) | expression of p53 (iPSC-CMs; [1]) | mean fluorescence intensity of superoxide signal (cardiomyocytes) | effects of Torin1 (cell cycle, TNNI3) (BJRiPS-CMs; pifithrin-α 10 μM with Torin1 200 nM for 7 days)
1 | COc1ccc(C2=N[C@@H](c3ccc(Cl)cc3)[C@@H](c3ccc(Cl)cc3)N2C(=O)N2CCNC(=O)C2)c(OC(C)C)c1 [nutlin-3a] | synergistic effect | upregulation | enhances | increases | increases | increases | increases | increases | increases | increases | increases | increases | increases | increases | –
2 | Cc1ccc(C(=O)Cn2c3c(sc2=N)CCCC3)cc1 [pifithrin-α] | – | – | – | – | – | – | – | – | – | – | – | – | – | – | inhibited
